Data taken from patent publication US12385042B2, “Cell-penetrating peptides” (VECTIOPEP OÜ, priority 2019, dated 2025).
Where a SMILES comes first, the peptide text is derived from it. Bridges are numbered along the chain shown (N, C = ends). Roman numbers before positions name the chains, in order. [ ]: non-standard residue; d: D form. The star is where a group is joined. Stearoyl = CCCCCCCCCCCCCCCCCC(=O)*; Orn = NCCC[C@H](N)C(=O)O

Experiments:
Proteinase K = biological target: T1, Proteinase K (Parengyodontium album, UniProt P06873); assay: Stability of CPP/siRNA complexes to degradation by Proteinase K; format: physicochemical; conditions: Proteinase K >14.4 U per well
T1 construct: purchased Thermo Scientific, USA
T1 sequence (P06873 106-384): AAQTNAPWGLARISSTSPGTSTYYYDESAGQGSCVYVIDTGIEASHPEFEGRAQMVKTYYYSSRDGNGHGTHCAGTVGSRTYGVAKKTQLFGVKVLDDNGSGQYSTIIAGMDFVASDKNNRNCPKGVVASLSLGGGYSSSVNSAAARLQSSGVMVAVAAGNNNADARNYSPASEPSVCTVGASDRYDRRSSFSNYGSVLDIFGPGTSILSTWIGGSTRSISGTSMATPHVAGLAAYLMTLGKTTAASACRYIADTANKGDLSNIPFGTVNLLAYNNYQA
Procedure: To assess protection of siRNA from enzymatic degradation, after addition of PG dilution and initial measurement to set a starting point, Proteinase K (Thermo Scientific, USA) was added (>14 U/ml, 20 ul of mixture per well containing dilution of 120 ul of enzyme in 1 ml), co-incubated with complexes and fluorescence was measured over a 10 h period.

U87 cells = assay: MTS toxicity assay; format: cell-based, human
Procedure: Cell proliferation was determined with the CellTiter 96® Aqueous Non-Radioactive Cell Proliferation Assay (MTS) (Promega Biotech AB, Sweden) according to the manufacturer's instructions. For this 1×10^5 U87 cells were seeded 1 day prior to experiment on transparent 96-well plates. On experiment day, media was replaced with 90 ul of fresh media and to the cells complexes formed at MR30 (both with 25 nM and 100 nM final siRNA concentrations) or free peptide at the range of 0.5-4 uM final concentrations were added. Cells were treated with complexes for 20 h. MTS was added according to the manufacturer's protocol. The absorbance of formazan product was measured at 490 nm with Tecan Sunrise microplate absorbance reader (Tecan Group Ltd, Switzerland) and percentage of viable cells was calculated using GraphPad Prism software 5.0 (Graphpad Software, CA, USA).

CHO cells = assay: pDNA (p-CMV-Luc2) transfection with CPP/pDNA complexes; format: cell-based; conditions: serum containing medium, CR1 to CR4, 24 h
Procedure: For the pDNA transfection experiment, CPP/pDNA nanoparticles were prepared by mixing […] of plasmid (p-CMV-Luc2) with the peptide in MQ water. Charge ratios from 1 to 4 (CR, equivalent to the nitrogen-to-phosphate ratio) were used. 50,000 CHO cells were seeded 24 hr before the experiment into 24-well plates, treated with complexes for 4 h in serum-containing medium, incubated for additional 20 hr, lysed and luminescence was measured.

[1] = tested on: subcutaneous U87MG tumor xenograft; assay: Biodistribution of CPP/Cy5-siRNA nanoparticles, U87 tumor; format: in vivo, mouse; conditions: peak at 3 h
Procedure: Human tumor xenografts (subcutaneous U87MG and HT-1080) were induced in mice (Hsd: Athymic Nude-Foxn1nu female, 2.5 month old, Harlan, UK). The xenografting was performed by implanting the cell suspension (1×10^6 cells in 100 ul volume of ice-cold DMEM without any supplements) subcutaneously to the flank.
At the appearance of tumor size of approx. 100 mm^3, mice were injected i.v. (via tail vein) with the CPP/siRNA complexes. Each animal received a single 200 ul i.v. injection of 20 ug Cy5-siRNA, formulated with CPPs at MR20 or MR40. As a control, 20 μg of un-complexed Cy5-labeled siRNA was administered. The biodistribution of Cy5-siRNA and CPP/Cy5-siRNA complexes was evaluated at different time points −0.5 h up to 6 h. For that, mice (n=2 in each treatment group) were imaged in vivo using IVIS Lumina II (CaliperLS, USA). Cy-5 fluorescence intensity values were acquired from the tumor region.

## CCCCCCCCCCCCCCCCCC(=O)N[C@@H](Cc1c[nH]cn1)C(=O)N[C@@H](Cc1c[nH]cn1)C(=O)N[C@@H](Cc1ccc(O)cc1)C(=O)N[C@@H](Cc1c[nH]cn1)C(=O)N[C@@H](Cc1c[nH]cn1)C(=O)NCC(=O)NCCC[C@H](N)C(=O)N[C@H](C(=O)N[C@@H](CC(C)C)C(=O)N[C@@H](CC(C)C)C(=O)N[C@@H](CCCCN)C(=O)N[C@@H](C)C(=O)N[C@@H](CC(C)C)C(=O)N[C@@H](CCCCN)C(=O)N[C@@H](C)C(=O)N[C@@H](CC(C)C)C(=O)N[C@@H](C)C(=O)N[C@@H](CCCCN)C(=O)N[C@@H](C)C(=O)N[C@H](C(=O)N[C@@H](CC(C)C)C(N)=O)[C@@H](C)CC)[C@@H](C)CC [NF71] (I: H-[Orn]ILLKALKALAKAIL-NH2 / II: Stearoyl-HHYHHG; amide I:1-II:C)
Proteinase K
  stability of complexes to proteinase K (in words): only slightly more resistant than NF55/siRNA complexes
U87 cells
  concentration at which free peptide is toxic to cells (MTS): ≥ 5 µM
CHO cells
  pDNA delivery / gene expression in vitro (in words): promising vectors for pDNA transfection
[1]
  peak accumulation in U87 tumor relative to naked Cy5-siRNA: 27 fold
